The record followed here is patent US6685960B1, “Solid lipidic nanospheres suitable to a fast internalization into cells” (priority 1998, dated 2004).

The test system of assay [1] is NIH-H460 cells of lung carcinoma. Description: Inhibition of cell proliferation, NIH-H460 cells counted by Cell Counter. Type of assay: cell-based. As to the method:
The experimentation has been carried out on NIH-H460 cells of lung carcinoma (D. N. Carney et al., Cancer Res., 45, 2913-2923, 1985) grown in monolayer in the RPMI 1640 nutrient medium (Bio Whittaker, Verviers, Belgium) added with 10% by volume with respect to the total volume of FCS (Fetal Calf Serum), at the temperature of 37° C., in a CO2 atmosphere humidified at 5%.
The cells have been put in 24 wells plates, using as nutrient medium RPMI 1640 added with 10% of FCS, and left to adhere for 24 hours. The insemination medium has been then removed and substituted with the experimental medium consisting of RPMI 1640 with 10% of FCS and increasing concentrations of sodium butyrate, or of cholesteryl butyrate in form of nanospheres prepared as in the above reported example 1. The cells have been kept for 6 days in contact with such experimental medium.
The effect of the sodium butyrate and of cholesteryl butyrate on the cell growth has been estimated counting the cells by a Cell Counter.

The subject of assay [2] is cells of the mastocarcinoma, MCF7. Description: Inhibition of cell proliferation, MCF7 cells counted by Cell Counter. The format is cell-based. As to conditions: Homo sapiens, MCF7, 144 h, read-out: inhibition of the cell growth. The procedure: The above described experiment has been repeated on cells of the mastocarcinoma, identified with the MCF7 abbreviation, using as insemination medium DMEM/F12 (Dulbecco's modified Eagle's medium, Sigma Chemical Co., St. Louis, Mo.) with 2% FCS.
Said cells have been placed in 12 well plates, where they have been left to adhere for 24 hours in the above described nutrition medium.
The nutrient medium has been then removed and substituted with the experimental medium consisting of DMEM/F12 with 10% FCS added with increasing concentrations of sodium butyrate, or of cholesteryl butyrate in form of nanospheres prepared according to the above reported example 2. The cells have been kept for 6 days in contact with such experimental medium.
The antiproliferative effect of the cholesteryl butyrate nanospheres on the cell growth has been estimated counting the cells with a Cell Counter.

What is called inhibition is the change of the read-out against control, counted positive when it falls. On to `CCCC(=O)[O-].[Na+]` [sodium butyrate], for which the inhibition at 210 µM in assay [1] (NIH-H460, 144 h, read-out: inhibition of the cell growth) stood at 50%. The inhibition at 200 µM in assay [2] worked out at 40%.
In the case of `CC(C)CCC[C@@H](C)[C@H]1CC[C@H]2[C@@H]3CC=C4C[C@@H](O)CC[C@]4(C)[C@H]3CC[C@]12C` [cholesterol], the “effect on the cell proliferation” value in assay [1] (comparison test, additive of the experimental medium RPMI 1640 with 10% FCS) is on record as “does not affect the cell proliferation in any way”.
